According to patent US20220175931A1, “OSMOTIC PRESSURE REGULATOR FOR PERITONEAL DIALYSATE CONTAINING D-ALLOSE AND/OR D-ALLULOSE” (NATIONAL UNIVERSITY CORPORATION KAGAWA UNIVERSITY, priority 2019, published 2022):
In brackets after ≈: the same amount, converted by molar mass. Entries after “also recorded” stand apart in the source; their conditions may differ. Like-named read-outs stand apart in the source and are kept apart here.

Tests used:
[1] = tested on: E. coli; experiment: MIC test, agar plate dilution method; type: cell-based, Escherichia coli
Protocol: (§1) In accordance with the agar plate dilution method of the Japanese Society of Chemotherapy (1981), the minimum inhibitory concentration of a sample was determined.
(§2) Agar plates containing a sample at predetermined concentrations were smeared with a test bacterial suspension and were incubated, and then the minimum concentration at which bacterial growth was inhibited was determined as the minimum inhibitory concentration.
(§3) A 10-fold diluted solution of a sample was prepared with purified water and was added to an agar medium at a 1/10 volume.
(§4) From the upper limit concentration, the concentration was determined by serial 2-fold dilution to about 100 μg/ml.
(§5) (1) A 70% solution was prepared (14 g was diluted in a 20-ml measuring flask).
(§6) (2) The 70% solution was diluted by 2-fold dilution. Seven to eight steps.
(§7) (3) A 1/9 volume of each solution was added to an agar medium, and the mixture was poured in a petri dish and solidified (the sample concentration was 7% or more in the agar).
(§8) A liquid culture medium containing bacteria was incubated for 16 to 20 hours, and a prepared culture medium having a bacterial concentration of about 10^6/ml was used.

[2] = tested on: Staphylococcus aureus; experiment: MIC test, agar plate dilution method; type: cell-based, Staphylococcus aureus subsp. (MSSA)
Protocol: as §1, §2, §3, §4, §5, §6, §7, §8

[3] = tested on: Corynebacterium; experiment: MIC test, agar plate dilution method; type: cell-based, Corynebacterium striatum
Protocol: as §1, §2, §3, §4, §5, §6, §7, §8

[4] = tested on: Pseudomonas aeruginosa; experiment: MIC test, agar plate dilution method; type: cell-based
Protocol: as §1, §2, §3, §4, §5, §6, §7, §8

[5] = tested on: Staphylococcus epidermidis; experiment: MIC test, agar plate dilution method; type: cell-based
Protocol: as §1, §2, §3, §4, §5, §6, §7, §8

[6] = tested on: MRSA; experiment: MIC test, agar plate dilution method; type: cell-based, Staphylococcus aureus (MRSA)
Protocol: as §1, §2, §3, §4, §5, §6, §7, §8

[7] = tested on: Enterococci; experiment: MIC test, agar plate dilution method; type: cell-based, Enterococcus faecalis
Protocol: as §1, §2, §3, §4, §5, §6, §7, §8

[8] = tested on: test bacteria; experiment: MIC test, summary statements for the test bacteria as a whole; type: cell-based
Protocol: as §1, §2
Drug concentration 128 μg/ml grown bacteria A+ B− C−
Drug concentration 64 μg/ml grown bacteria A+ B+ C−
Drug concentration 32 μg/ml grown bacteria A+ B+ C+

[9] = tested on: diabetic model rats (SDT fatty rats); experiment: Blood glucose level after intraperitoneal administration of PDF-based dialysate, diabetic model rats, Test Example 2; type: in vivo, rat; conditions: PDF-based solutions
Protocol: (§9) As shown in the protocol in FIG. 9, 35- to 42-week-old male SDT fatty rats (a weight of 380 to 490 g) as diabetic model rats were fasted for 24 hours, then the weights and fasting blood glucose levels were determined, and the rats were randomly separated into two groups. As the administration solutions, the original solution was changed to PDF, and a solution containing only glucose as the sugar at a concentration of 4%, a solution having a sugar concentration of 4% in which D-allose was contained at 10% and glucose was contained at 90% were prepared, and each osmotic pressure of the two solutions was determined.
FIG. 10 show the test result of blood glucose level of the two groups of a group of the solution containing only glucose at a concentration of 4% and a group of the solution having a sugar concentration of 4% in which D-allose was contained at 10% and glucose was contained at 90%.
(§10) The diabetic model rats had more weights and higher fasting blood glucose levels than those of the normal rats. Blood samples were difficult to collect from the tails of the diabetic rats and thus were collected from the jugular vein, and the blood glucose levels were determined by using the same blood glucose meter as above. The model rats had diabetes, and thus the blood glucose level increase was slow as compared with the normal rats.

[10] = tested on: normal rats (SD rats); experiment: Blood glucose level after intraperitoneal administration of peritoneal dialysate, normal rat models, Test Example 1; type: in vivo
Protocol: As shown in the protocol in FIG. 1, normal rats (6-week-old male SD rats, a weight of 155 to 170 g/body) were fasted for 24 hours, then the weights and fasting blood glucose levels were determined, and the rats were randomly separated into four groups.
As the administration solutions, a solution containing only glucose at a concentration of 4%, a solution having a sugar concentration of 4% in which D-allose was contained at 5% and glucose was contained at 95%, a solution having a sugar concentration of 4% in which D-allose was contained at 10% and glucose was contained at 90%, and a solution having a sugar concentration of 4% in which D-allose was contained at 25% were prepared, and each osmotic pressure of the four solutions was determined.
(§11) For the normal rats, blood samples were collected from the tail veins, and the blood glucose (blood sugar) levels were determined by using a commercially available blood glucose meter.
The results were subjected to Tukey-Kramer test by using an analysis software, JMP, and no significant difference was observed.

[11] = tested on: diabetic model rats (SDT fatty rats); experiment: Blood glucose level after intraperitoneal administration of peritoneal dialysate, diabetic model rats, Test Example 1; type: in vivo, rat
Protocol: as §9, with “4, 12-” for “9, 35-”, “13-week-old” for “42-week-old”, “360” for “380”, “460” for “490”, “solutions,” for “solutions, the original solution was changed to PDF, and”, “glucose” for “glucose as the sugar”
as §10, with “and” for “and the”

[12] = tested on: normal rats (SD rats); experiment: Blood glucose level after intraperitoneal administration of PDF-based dialysate, normal rat models, Test Example 2; type: in vivo; conditions: PDF-based solutions
Protocol: Next, a peritoneal dialysis fluid (PDF) was prepared, solutions containing glucose in a constant total amount of (0.432 g) were prepared, and D-allose was added to the solution at a predetermined ratio to give the following two peritoneal dialysates having a sugar concentration of 4% by weight and an osmotic pressure of 500 mOsm/L.
As shown in the protocol in FIG. 7, normal rats (6-week-old male SD rats, a weight of 155 to 175 g/body) were fasted for 24 hours, then the weights and fasting blood glucose levels were determined, and the rats were randomly separated into two groups. As the administration solutions, a solution containing only glucose at a concentration of 4% and a solution having a sugar concentration of 4% in which D-allose was contained at 10% and glucose was contained at 90% were prepared, and each osmotic pressure was determined.
as §11
FIG. 8 show the test result of blood glucose level of the two groups of a group of the solution containing only glucose at a concentration of 4% and a group of the solution having a sugar concentration of 4% in which D-allose was contained at 10% and glucose was contained at 90%.

[13] = tested on: male SD rats; experiment: Blood glucose level after intraperitoneal administration of D-allulose dialysate, normal rats, Test Example 3; type: in vivo, rat; conditions: PDF-based, vs control group
Description: The number of dialysis patients due to end-stage renal failure has been increasing; diabetic nephropathy is the main basic disease of end-stage renal failure; peritoneal dialysis patients can work during the day and has high QOL; peritoneal dialysis uses an osmotic pressure difference by glucose to remove water and toxins; and glucose in a peritoneal dialysate is absorbed through the peritoneum into the body to increase the blood glucose level, and this may worsen prognosis of a dialysis patient with diabetes. Considering the above circumstances, Kagawa University is only the organization capable of producing all rare sugars in the world and can research the rare sugar optimum for an intended dialysate.
The test example of D-allulose includes a substitution example and an addition example. In the substitution example, D-allose in FIG. 7 was substituted with D-allulose.
To male SD rats, a control solution as a solution in which a peritoneal dialysis fluid (PDF) was mixed with glucose, a 10% substitution solution as a solution in which 10% (by weight) of glucose to be mixed was substituted with D-allulose, or a 10% load solution as a solution in which D-allulose was added to the control solution in an amount corresponding to 10% by weight of glucose was intraperitoneally administered in the same volume, and blood glucose levels were determined over time.

[14] = Escherichia coli, read-out: MIC
[15] = Staphylococcus aureus, read-out: MIC
[16] = Enterococcus faecalis, read-out: MIC
[17] = intraperitoneal, 0, 2, 4, and 6 hours
[18] = summary of results, drug concentration 128, 64, 32 μg/ml, bacterium not named

| SMILES | MIC [1, 14] | MIC ([2]; read-out: MIC) | MIC ([3]; read-out: MIC) | MIC ([4]; read-out: MIC) | MIC ([5]; read-out: MIC) | MIC [6, 15] | MIC [7, 16] | MIC [8, 18] | MIC [1] | MIC [2] | MIC [3] | MIC [4] | MIC [5] | MIC [6] | MIC [7] | also measured |
| --- | --- | --- | --- | --- | --- | --- | --- | --- | --- | --- | --- | --- | --- | --- | --- | --- |
| O=C[C@H](O)[C@@H](O)[C@H](O)[C@H](O)CO [Sample 1), D-glucose] | > 70 mg/mL | > 70 mg/mL | > 70 mg/mL | > 70 mg/mL | > 70 mg/mL | > 70 mg/mL | > 70 mg/mL |  |  |  |  |  |  |  |  |  |
| O=C[C@H](O)[C@H](O)[C@H](O)[C@H](O)CO [Sample 5), D-allose] | > 70 mg/mL | > 70 mg/mL | > 70 mg/mL | > 70 mg/mL | 70 mg/mL (≈ 389 mM) | > 70 mg/mL | > 70 mg/mL |  |  |  |  |  |  |  |  | MIC [8]: 0.064 mg/mL (≈ 0.355 mM); blood glucose level increase [9, 17]: suppressed; AUC of blood glucose level ([9]; t-test): suppressive effect on the blood glucose level increase with a significant difference; AUC of blood glucose level ([10]; Tukey-Kramer test): significant declining trend; blood glucose level increase (time course) ([10]; fasted 24 hours, vs glucose-only solution): increase suppressive effect with a significant difference; also recorded: suppressed; blood glucose level increase [11, 17]: suppressed; AUC of blood glucose level ([11]; intraperitoneal, t-test): suppressive effect on the blood glucose level increase with a significant difference; blood glucose level increase [12]: suppressed |
| O=C(CO)[C@H](O)[C@H](O)[C@H](O)CO [Sample 3), D-allulose] |  |  |  |  |  |  |  | > 0.128 mg/mL | >70 mg/mL | >70 mg/mL | >70 mg/mL | >70 mg/mL | >70 mg/mL | >70 mg/mL | >70 mg/mL | blood glucose level increase (BS) [13]: significantly suppressed |
| O=C(CO)[C@@H](O)[C@H](O)[C@H](O)CO [Sample 2), D-Fructose] | > 70 mg/mL | > 70 mg/mL | > 70 mg/mL | > 70 mg/mL | > 70 mg/mL | > 70 mg/mL | > 70 mg/mL |  |  |  |  |  |  |  |  |  |
| O=C(CO)[C@@H](O)[C@@H](O)[C@@H](O)CO [Sample 4), L-allulose] |  |  |  |  |  |  |  | 0.128 mg/mL (≈ 0.71 mM) | >70 mg/mL | >70 mg/mL | >70 mg/mL | >70 mg/mL | >70 mg/mL | >70 mg/mL | >70 mg/mL |  |
